The values that follow come from article PMC7233811, “Small molecule inhibits T-cell acute lymphoblastic leukaemia oncogenic interaction through conformational modulation of LMO2” (Oncotarget, 2020).

Assay [1] has as its target T1, LMO2 (LIM only protein 2) (Homo sapiens, UniProt P25791).
T1 construct: tandem LIM-domain construct of LMO2 fused to the LDB1^LID (FLINC2); with LDB1 LID (fused)
T1 sequence (P25791 30-153 limits assumed): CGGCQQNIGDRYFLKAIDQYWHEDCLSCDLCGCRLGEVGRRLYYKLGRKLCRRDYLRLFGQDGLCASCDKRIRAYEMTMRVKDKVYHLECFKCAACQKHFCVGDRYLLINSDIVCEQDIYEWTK
T1 sequence (Q86U70 336-375 partner limits assumed): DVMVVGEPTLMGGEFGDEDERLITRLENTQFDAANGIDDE
The assay is described as follows: microscale thermophoresis (NT647-labelled protein); supported by STD-NMR, SAXS and HTRF PPI inhibition (IC50 […]). The class given is binding.

Assay [2] deals with SCL/E2A complex (Homo sapiens) (UniProt P17542). Briefly: given as Ka. The conditions noted are these: cited from earlier work.
SCL/E2A complex (Homo sapiens), sequence (P17542 whole entry, chain 1 of 2): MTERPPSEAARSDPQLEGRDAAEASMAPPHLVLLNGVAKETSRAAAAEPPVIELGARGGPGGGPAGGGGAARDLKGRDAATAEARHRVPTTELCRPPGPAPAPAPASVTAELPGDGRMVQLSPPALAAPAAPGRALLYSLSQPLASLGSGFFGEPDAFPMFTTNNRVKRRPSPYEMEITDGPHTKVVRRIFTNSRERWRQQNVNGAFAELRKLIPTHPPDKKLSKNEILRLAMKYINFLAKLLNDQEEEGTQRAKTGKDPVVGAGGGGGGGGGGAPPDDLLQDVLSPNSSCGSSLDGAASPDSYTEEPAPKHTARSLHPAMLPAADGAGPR
SCL/E2A complex (Homo sapiens), sequence (P15923 whole entry, chain 2 of 2, further chain): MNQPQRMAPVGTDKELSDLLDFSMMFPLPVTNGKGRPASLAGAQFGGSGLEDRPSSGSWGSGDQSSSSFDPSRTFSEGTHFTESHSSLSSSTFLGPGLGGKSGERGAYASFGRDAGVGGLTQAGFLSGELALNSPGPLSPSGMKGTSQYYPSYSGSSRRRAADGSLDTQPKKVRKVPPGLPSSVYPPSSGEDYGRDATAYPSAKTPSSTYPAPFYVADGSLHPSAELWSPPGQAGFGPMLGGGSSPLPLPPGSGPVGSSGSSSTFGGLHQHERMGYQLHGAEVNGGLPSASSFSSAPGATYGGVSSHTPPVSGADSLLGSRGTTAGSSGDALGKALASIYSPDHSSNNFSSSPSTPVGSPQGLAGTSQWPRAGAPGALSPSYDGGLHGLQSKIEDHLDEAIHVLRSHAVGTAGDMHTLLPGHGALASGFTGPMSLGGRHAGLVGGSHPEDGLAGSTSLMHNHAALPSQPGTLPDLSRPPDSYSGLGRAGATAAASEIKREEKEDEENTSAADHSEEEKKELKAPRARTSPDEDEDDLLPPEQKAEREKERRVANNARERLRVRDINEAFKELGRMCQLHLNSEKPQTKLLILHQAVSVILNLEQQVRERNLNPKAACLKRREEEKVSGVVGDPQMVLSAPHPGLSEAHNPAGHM

LMO2, sequence (P25791 whole entry, the tested form may be a part): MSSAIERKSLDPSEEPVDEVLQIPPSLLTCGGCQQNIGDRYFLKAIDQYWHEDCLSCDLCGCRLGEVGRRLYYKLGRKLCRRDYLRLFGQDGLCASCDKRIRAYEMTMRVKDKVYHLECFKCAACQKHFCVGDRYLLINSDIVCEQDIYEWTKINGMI

In assay [1], `Cc1cc(C)cc(C2(C(=O)N3CCOCC(Cc4ccc5nccn5c4)C3)CCOCC2)c1` (centres unmarked) [3K7] displayed a Kd of 1200 nM.

With LMO2 (from UniProt P25791), the Kd in assay [2] was 5.56 nM.
